Source: patent US20230348520A1, “COMPOUND COMPRISING BETA-NICOTINAMIDE MONONUCLEOTIDE OR PHARMACOLOGICALLY ACCEPTABLE SALT THEREOF, AND METHOD FOR EVALUATING QUALITY AND METHOD FOR ASSESSING ENZYMATIC REACTIVITY OF SAID COMPOUND” (ORIENTAL YEAST CO., LTD., priority 2020, published 2023)

Tests used:
[1] = biological target: R-LDH5 (lactate dehydrogenase (LDH) 5, SEQ ID NO: 1, derived from skeletal muscle) (Oryctolagus cuniculus, UniProt P13491, L277I/T249S); experiment: Evaluation of enzymatic reactivity with lactate dehydrogenase R-LDH5 (Test Examples 1 and 2); assay type: biochemical; details: 19 mM β-NMN in R1 reagent; R-LDH5 245 U/mL final; 37° C.; 340 nm; one unit = 0.1 mAbs change in absorbance per minute; average of three measurements
Text: The lactate dehydrogenase is preferably lactate dehydrogenase derived from mammalian skeletal muscle, and more preferably lactate dehydrogenase (LDH) 5 (hereinafter may be referred to as “R-LDHS”). The R-LDHS has an amino acid sequence as set forth in SEQ ID NO: 1, is composed of a tetramer of sub-units, and is derived from skeletal muscle. Other lactate dehydrogenases of any mammal can also be used, such as porcine lactate dehydrogenase (LDH) 1, human lactate dehydrogenase (LDH) 1, and human lactate dehydrogenase (LDH) 5. The LDH catalyzes dehydrogenation of lactic acid as a substrate, to convert the lactic acid to pyruvic acid. At this time, the β-NMN is converted to a reduced form of β-NMN (see FIG. 1).
In the present invention, the enzymatic reactivity refers to a value obtained through measurement using the following reagents and method.
(The purity of the β-NMN in a measurement sample is assumed to be 100%. Also, the β-NMN is dissolved in an 80 mM sodium carbonate solution in advance.)
The enzyme solution is prepared so that the LDH is to be 245 U/mL as a final concentration in a reaction liquid.
In the present invention, the activity unit (U) of the LDH is an activity unit measured by the human LDH measurement method according to IFCC when using NAD as a coenzyme.
An enzyme activity is measured using a 7180 type Hitachi automatic analyzer (obtained from Hitachi High-Tech Corporation). Measurement parameters are as follows.
Analysis method: Rate A Measurement wavelength (sub/main): 405 nm/340 nm Reaction duration: 10 minutes Photometric points: 20 to 24 Sample liquid (enzyme solution): 18 μL R1 reagent: 120 μL R2 reagent: 87 μL
18 μL of the enzyme solution and 120 μL of the R1 reagent are mixed. The resulting mixture is incubated at 37° C. for 4.5 minutes (photometric points 1 to 16), followed by addition of 87 μL of the R2 reagent, to initiate reaction (photometric point 17). From the absorbance of the measurement sample one to two minutes after initiation of the reaction (photometric points 20 to 24), the absorbance of water (blank) at the same photometric points is subtracted, to calculate a value of change in absorbance per minute (ΔmAbs/min). Regarding the activity unit (the unit of reactivity with the lactate dehydrogenase R-LDH5), 0.1 mAbs as the value of change in absorbance per minute is defined as one unit.
By the following method, the β-NMN compound of the present invention (Production Example 1) and β-NMN products 1 to 3 were measured for the enzymatic reactivity with R-LDHS (SEQ ID NO: 1). Note that, the measurement results are average values in the measurement performed three times.
(The purity of the β-NMN in a measurement sample was assumed to be 100%. Also, the β-NMN was dissolved in an 80 mM sodium carbonate solution in advance.)
The enzyme solution was prepared so that the R-LDH5 was to be 245 U/mL as a final concentration in a reaction liquid.
An enzyme activity was measured using a 7180 type Hitachi automatic analyzer (obtained from Hitachi High-Tech Corporation). Measurement parameters are as follows.
Analysis method: Rate A Measurement wavelength (sub/main): 405 nm/340 nm Reaction duration: 10 minutes Photometric points: 20 to 24 Sample liquid (enzyme solution): 18 μL
18 μL of the enzyme solution and 120 μL of the R1 reagent were mixed. The resulting mixture was incubated at 37° C. for 4.5 minutes (photometric points 1 to 16), followed by addition of 87 μL of the R2 reagent, to initiate reaction (photometric point 17). Measurements were taken for five minutes after initiation of the reaction. From the absorbance of the measurement sample at minute one to minute two after the initiation (photometric points 20 to 24), the absorbance of water (blank) at the same photometric points was subtracted, to calculate a value of change in absorbance per minute (ΔmAbs/min). Regarding the activity unit, 0.1 mAbs as the value of change in absorbance per minute was defined as one unit. […]

[2] = biological target: R-LDH5 (lactate dehydrogenase, SEQ ID NO: 1) (Oryctolagus cuniculus, UniProt P13491, L277I/T249S); experiment: Dependency of LDH activity value on β-NMN compound concentration, R-LDH5 (Test Example 4); assay type: biochemical; details: R-LDH5 245 U/mL; for relative activity value of LDH, dependency on β-NMN concentration: 0-200 mM β-NMN in R1 reagent, compared with Production Example 1, FIGS. 4B, 4C
Method: (§1) In order to confirm dependency of a LDH activity value on the β-NMN compound concentration, the β-NMN compound produced in Production Example 1 and β-NMN products 1 to 3 the same as those used in Test Example 1 were used for measurement of an enzyme activity of LDH at varied concentrations of the β-NMN in the R1 reagent.
(§2) The enzyme activity of LDH was measured in the same manner as in [Evaluation of enzymatic reactivity] of Test Example 1 except that the following R1 reagent and enzyme solution were used, to calculate a value of change in absorbance per minute (ΔmAbs/min). Regarding as 100% the activity value of LDH when the β-NMN compound of Production Example 1 was used at 200 mM, the relative activity values (%) in each NMN at each concentration are presented in FIGS. 4A to 4F (FIGS. 4A to 4C: R-LDH5 and FIGS. 4D and 4F: human LDH1). Note that, the measurement results are average values in the measurement performed three times.
(§3) (The purity of the β-NMN in a measurement sample was assumed to be 100%. Also, the β-NMN was dissolved in a 100 mM sodium carbonate solution in advance.)
An enzyme solution was prepared so that the LDH was to be 245 U/mL as a final concentration in a reaction liquid.

[3] = biological target: human lactate dehydrogenase (LDH) 1 (SEQ ID NO: 2) (Homo sapiens, UniProt P07195); experiment: Dependency of LDH activity value on β-NMN compound concentration, human LDH1 (Test Example 4); assay type: biochemical; details: human LDH1 45 U/mL; 0-200 mM β-NMN in R1 reagent; compared with Production Example 1; FIGS. 4D to 4F
Method: as §1, §2, §3
An enzyme solution was prepared so that the LDH was to be 45 U/mL as a final concentration in a reaction liquid.

HEK293 cells [4] = experiment: Cytotoxicity rate from intra- and extracellular AST activities in culture cells (Test Example 5); assay type: cell-based; details: nonadherent HEK293 cells; 0.1 mM β-NMN; shake-cultured seven days without exchange of the medium; FIGS. 5A, 5B
HEK293 cells [5] = experiment: Intracellular NAD content in culture cells (Test Example 5); assay type: cell-based; details: nonadherent HEK293 cells; 0.1 mM β-NMN; shake-cultured seven days without exchange of the medium; FIGS. 6A, 6B
Method: In order to evaluate biological activities of the β-NMN compounds of Production Example 1 and the β-NMN product 3, culture cells were cultured in a medium containing the β-NMN compound, to measure change in intracellular NAD.
The culture cells used were HEK293 cells that had been treated to be nonadherent. The medium used was FreeStyle™ 293 Expression Medium (obtained from Thermo Fisher Scientific).
First, the HEK293 cells, which had been treated to be nonadherent, were disseminated in the medium so as to have a concentration of 1×10^6 cells/mL. The resulting medium was dispensed into six 125 mL-flasks by 30 mL each. The flasks were supplemented with the β-NMN compounds of Production Example 1 and the β-NMN product 3 so as to have a final concentration of 0 or 0.1 mM. Without exchange of the medium, the cells were shake-cultured for seven days in a CO2 incubator at 37° C.
After shake-culturing for seven days, the cells and the culture supernatant were recovered for various analyses. […] Specifically, the recovered cells were weighed and were extracted with Extraction buffer attached to a kit, and the resulting extract was measured for NAD. The intracellular NAD content was calculated based on a calibration curve obtained by measuring NAD solutions of various concentrations.

Chain of human lactate dehydrogenase (LDH) 1 (SEQ ID NO: 2) (P07195 whole entry): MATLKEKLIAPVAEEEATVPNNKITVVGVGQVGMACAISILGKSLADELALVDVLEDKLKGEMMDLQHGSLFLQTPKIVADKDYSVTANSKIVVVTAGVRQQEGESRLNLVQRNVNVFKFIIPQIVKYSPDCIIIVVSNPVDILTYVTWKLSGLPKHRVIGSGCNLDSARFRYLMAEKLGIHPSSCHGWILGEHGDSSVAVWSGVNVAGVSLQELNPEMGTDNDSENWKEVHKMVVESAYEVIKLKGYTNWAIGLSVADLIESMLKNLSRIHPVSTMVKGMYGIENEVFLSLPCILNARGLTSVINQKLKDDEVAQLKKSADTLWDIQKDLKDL

SMILES | Enzymatic reactivity (unit) [1] | enzymatic activity of LDH at a β-NMN concentration of 200 mM ([2]; 200 mM β-NMN in R1 reagent, FIG. 4A) | relative activity value of LDH, dependency on β-NMN concentration [2] | relative activity value of LDH, dependency on β-NMN concentration [3] | cytotoxicity rate determined based on intra- and extracellular AST activities (HEK293 cells [4]) | intracellular NAD content (HEK293 cells [5])
NC(=O)c1ccc[n+]([C@@H]2O[C@H](COP(=O)([O-])O)[C@@H](O)[C@H]2O)c1 [Production Example 3, β-nicotinamide mononucleotide] | 38 unit | – | – | – | – | –
NC(=O)c1ccc[n+]([C@@H]2O[C@H](COP(=O)([O-])O)[C@@H](O)[C@H]2O)c1 [β-NMN product 3, β-nicotinamide mononucleotide] | 26 unit | – | the difference in the activity value from the β-NMN compound of Production Example 1 became larger as the β-NMN concentration increased | larger differences in the activity value from the β-NMN compound of Production Example 1 as the β-NMN concentration increased | – | –
NC(=O)c1ccc[n+]([C@@H]2O[C@H](COP(=O)([O-])O)[C@@H](O)[C@H]2O)c1 [Production Example 4, β-nicotinamide mononucleotide] | 35 unit | – | – | – | – | –

Now from value to compound, other results behind:

Enzymatic reactivity (unit) [1] | enzymatic activity of LDH at a β-NMN concentration of 200 mM ([2]; 200 mM β-NMN in R1 reagent, FIG. 4A) | SMILES | relative activity value of LDH, dependency on β-NMN concentration [2] | relative activity value of LDH, dependency on β-NMN concentration [3] | cytotoxicity rate determined based on intra- and extracellular AST activities (HEK293 cells [4]) | intracellular NAD content (HEK293 cells [5])
39 unit | – | NC(=O)c1ccc[n+]([C@@H]2O[C@H](COP(=O)([O-])O)[C@@H](O)[C@H]2O)c1 [Production Example 1, β-nicotinamide mononucleotide] | – | – | lower when the β-NMN compound of Production Example 1 was added than when the β-NMN compound of the β-NMN product 3 was added | higher when the β-NMN compound of Production Example 1 was added than when the β-NMN compound of the β-NMN product 3 was added
40 unit | – | NC(=O)c1ccc[n+]([C@@H]2O[C@H](COP(=O)([O-])O)[C@@H](O)[C@H]2O)c1 [Production Example 2, β-nicotinamide mononucleotide] | – | – | – | –
23 unit | could not be measured | NC(=O)c1ccc[n+]([C@@H]2O[C@H](COP(=O)([O-])O)[C@@H](O)[C@H]2O)c1 [β-NMN product 1, β-nicotinamide mononucleotide] | – | larger differences in the activity value from the β-NMN compound of Production Example 1 as the β-NMN concentration increased | – | –
27 unit | – | NC(=O)c1ccc[n+]([C@@H]2O[C@H](COP(=O)([O-])O)[C@@H](O)[C@H]2O)c1 [β-NMN product 2, β-nicotinamide mononucleotide] | the difference in the activity value from the β-NMN compound of Production Example 1 became larger as the β-NMN concentration increased | larger differences in the activity value from the β-NMN compound of Production Example 1 as the β-NMN concentration increased | – | –
